These results are taken from US8835644B2, “Broad spectrum benzothiophene-nitrothiazolide and other antimicrobials” (University of Virginia Patent Foundation, priority 2009, dated 2014).

In brackets after ≈: the same amount, converted by molar mass. Structures can show the parent of a compound that is named as a salt. Where two headings read alike, the source gives them in different places.

One assay relates to S. epidermidis. Kind of assay: MIC testing by broth dilution, S. epidermidis plank. The assay is classed as cell-based, Staphylococcus epidermidis. A digest of the protocol:
(§1)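 Compounds were diluted serially from 32 μg/ml to 0.06 in medium holding a standard inoculum, then visually scored at 24 h, and the lowest well without growth was recorded. Media were LB for E. coli, Trypticase Soy for S. epidermidis and Brain Heart Infusion for C. jejuni. C. difficile zones were measured anaerobically relative to NTZ.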

Assay [1] has as its system PFOR (pyruvate ferredoxin oxidoreductase). Kind of assay: Direct PFOR enzyme assay. The class given is biochemical. The procedure:
(§2) Representative compounds of the invention were tested in a series of assays against a series of organisms as described above. […] The organisms tested include, C. difficile, H. pylori, C. jejuni, MRSA, S. epidermidis, and E. coli. S. epidermidis and E. coli were tested in the plank and biofilm assay. A disk diffusion assay was also used for C. difficile. Direct PFOR enzyme assays were also performed. All analogues and derivatives were not tested on every organism in every type of assay (the “-” in each table means that it was not tested).

A further assay has as its system MRSA. Nature of the assay: MIC testing by broth dilution, MRSA. The class given is cell-based, Staphylococcus aureus. A digest of the protocol:
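Values are broth-dilution MICs, defined as the well showing no growth on visual reading after 24 h; the tested range was 32 to 0.06 μg/ml, in organism-specific media (LB, Trypticase Soy, Brain Heart Infusion). The C. difficile entries come instead from anaerobic Kirby-Bauer disk zones, normalised to NTZ.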

The next assay concerns H. pylori. Kind of assay: MIC testing by broth dilution, H. pylori. The class given is cell-based, Helicobacter pylori. A digest of the protocol:
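Broth dilution MIC determination against H. pylori: a standard inoculum in 100 microliters of Brain Heart Infusion medium was placed in 96 well microplates. Test compounds began at 32 μg/ml in 200 microliters in well one and were serially diluted over a 32 to 0.06 range. After 24 h, plates were scored by eye and the first well without growth was recorded as the MIC.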

A further assay concerns C. jejuni. Kind of assay: MIC testing by broth dilution, C. jejuni. The class given is cell-based, Campylobacter jejuni. A digest of the protocol: as §1
(In broth dilution the organism is exposed to a series of concentrations in liquid medium.)

Another assay has as its system E. coli. Kind of assay: MIC testing by broth dilution, E. coli plank. The class given is cell-based, Escherichia coli. A digest of the protocol:
as §1

The subject of a further assay is E. coli biofilm. Kind of assay: E. coli biofilm assay (activity tables). The assay is classed as cell-based, Escherichia coli. The conditions noted are these: biofilm. A digest of the protocol:
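After 24 h static culture at 37 °C in wells containing NTZ, strain 042 (1:100 inoculum) biofilm was quantified by 0.5% crystal violet absorbance at 570 nm. Planktonic growth was taken from turbidity or LB plate counts as cfu/ml; all runs triplicate, reported as mean and SD.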

In a further assay the test system is S. epidermidis biofilm. Kind of assay: S. epidermidis biofilm assay (activity tables). The class given is cell-based, Staphylococcus epidermidis. The procedure:
Staphylococcal strains were cultured overnight in TSB at 37° C. with shaking, diluted in fresh medium to an OD600 of 0.01 and 200 W was dispensed into sterile flat bottom polystyrene 96 well microtiter plates (Costar 3596, Corning Inc.). […] Each compound and dilution was tested in triplicate. The plates were incubated overnight at 37° C. in a humidified incubator, without shaking and both growth and biofilm accumulation were determined at 16 h.
Following recording of turbidities, the culture medium was aspirated and the wells were washed three times with distilled water, blotted on paper towels, and fixed with 75% ethanol for 10 minutes.
To visualize biofilm material, 0.5% crystal violet was added to each well and after 5 minutes was removed and the wells washed three times with distilled water. Plates were read using a microplate reader at a wavelength of 570 nm. The dye was then extracted by adding 200 W of 95% ethanol, and the absorbance was read again at 570 nm. All assays were performed in triplicate and the mean and standard deviation determined. […]
as §2

Another assay concerns C. difficile. Nature of the assay: Disk diffusion (Kirby Bower), C. difficile. The class given is cell-based, Clostridium difficile. Conditions: for Disk Diffusion (%) C. difficile: zone of inhibited growth as relative ratio to the zone for NTZ. A digest of the protocol: as §1
Background: In agar diffusion tests the substance spreads into inoculated agar from a disc or well.

The mark [2] stands for this setting: * biphasic initial inhibition followed by uninhibited rate, ** caused some precipitant in extract.
Setting [3] is: Helicobacter pylori, 24 h, read-out: MIC (μM) H. pylori.
Setting [4] is: Campylobacter jejuni, 24 h, read-out: MIC (μM) C. jejuni.

For `O=C(Nc1sc([N+](=O)[O-])cc1[N+](=O)[O-])c1ccc(Br)s1` [VPC16b2025], the MIC in the assay with S. epidermidis (planktonic, 2-amino-3,5-dinitrothiophene analogues table, read-out: MIC S. epidermidis Plank) amounted to 15.9 µM (≈ 6.01 µg/mL); in the assay on MRSA (2-amino-3,5-dinitrothiophene analogues table, read-out: MIC MRSA), 63.5 µM (≈ 24 µg/mL); in the assay on H. pylori (2-amino-3,5-dinitrothiophene analogues table, read-out: MIC H. pylori), 2.6 µM (≈ 0.983 µg/mL); with C. jejuni (2-amino-3,5-dinitrothiophene analogues table, read-out: MIC C. jejuni), 2.6 µM (≈ 0.983 µg/mL). Also, in assay [1] (setting [2]), the “PFOR inhibition relative to nitazoxanide (=100)” value was 98** %.
Take `O=C(Nc1sc([N+](=O)[O-])cc1[N+](=O)[O-])c1cc(C(F)(F)F)ccc1Cl` [VPC16b2026, 2-Chloro-N-(3,5-dinitrothiophen-2-yl)-5-(trifluoromethyl)benzamide]: the MIC is 15.2 µM (≈ 6.01 µg/mL) in the assay on S. epidermidis (Staphylococcus epidermidis, read-out: MIC S. epidermidis Plank); 30.3 µM (≈ 12 µg/mL) in the assay on MRSA (Staphylococcus aureus, MRSA, read-out: MIC MRSA); 0.8 µM (≈ 0.317 µg/mL) with H. pylori (Helicobacter pylori, read-out: MIC H. pylori); 2.5 µM (≈ 0.989 µg/mL) in the assay with C. jejuni (Campylobacter jejuni, read-out: MIC C. jejuni). The “PFOR inhibition relative to nitazoxanide (=100)” value in assay [1] (setting [2]) amounted to 100%.
With `O=C(Nc1ncc([N+](=O)[O-])s1)c1ccc(-c2ccc(F)cc2)o1` [VPC16a1104], the MIC in the assay on S. epidermidis (planktonic, Furan analogues table, read-out: MIC S. epidermidis Plank) is 96.0 µM (≈ 32 µg/mL); with MRSA (Furan analogues table, read-out: MIC MRSA), 96.0 µM (≈ 32 µg/mL); in the assay on H. pylori (Furan analogues table, read-out: MIC H. pylori), 1.0 µM (≈ 0.333 µg/mL); in the assay with C. jejuni (Furan analogues table, read-out: MIC C. jejuni) it was 96.0 µM (≈ 32 µg/mL). In assay [1] (Furan analogues table), the “PFOR inhibition relative to nitazoxanide (=100)” value is on record as 81%.
Consider `NCCCc1ccccc1C(=O)Nc1ncc([N+](=O)[O-])s1` [VPC162134, 2-(3-Aminopropyl)-N-(5-nitrothiazol-2-yl)benzamide hydrochloride], for which the MIC was determined as 93.3 µM with S. epidermidis (Staphylococcus epidermidis, 24 h, read-out: MIC (μM) S. epidermidis Plank); 93.3 µM with MRSA (Staphylococcus aureus, MRSA, 24 h, read-out: MIC (μM) MRSA); 2.9 µM in the assay on H. pylori (setting [3]); 17.5 µM in the assay on C. jejuni (setting [4]). In addition, the “PFOR inhibition relative to nitazoxanide (=100)” value in assay [1] is reported as 144%.
On to `O=C(Nc1nc(Cl)c([N+](=O)[O-])s1)c1cccs1` [VPC162089, N-(4-Chloro-5-nitrothiazol-2-yl)thiophene-2-carboxamide], for which the MIC amounted to 82.8 µM (≈ 24 µg/mL) in the assay with S. epidermidis (Staphylococcus epidermidis, broth dilution, Trypticase Soy, 24 h, read-out: MIC (μM) S. epidermidis Plank); 110 µM (≈ 32 µg/mL) in the assay on MRSA (Staphylococcus aureus, MRSA, broth dilution, Trypticase Soy, 24 h, read-out: MIC (μM) MRSA); 6.9 µM (≈ 2 µg/mL) in the assay with H. pylori (Helicobacter pylori, broth dilution, Brain Heart Infusion, 24 h, read-out: MIC (μM) H. pylori); 13.8 µM (≈ 4 µg/mL) in the assay with C. jejuni (Campylobacter jejuni, broth dilution, Brain Heart Infusion, 24 h, read-out: MIC (μM) C. jejuni); 110 µM (≈ 32 µg/mL) in the assay on E. coli (Escherichia coli, broth dilution, LB medium, 24 h, read-out: MIC (μM) E. coli Plank). For the same molecule, in [1], the “PFOR inhibition relative to nitazoxanide (=100)” value amounted to 93%.
Turning to `O=C(Nc1ncc([N+](=O)[O-])s1)c1ccc(-c2ccccc2C(F)(F)F)o1` [VPC161196, N-(5-Nitrothiazol-2-yl)-5-(2-(trifluoromethyl)phenyl)furan-2-carboxamide], the MIC worked out at 5.7 µM (≈ 2.18 µg/mL) with S. epidermidis (Staphylococcus epidermidis, planktonic, Furan analogues table, read-out: MIC S. epidermidis Plank); 90.8 µM (≈ 34.8 µg/mL) in the assay with E. coli biofilm (Escherichia coli, Furan analogues table, read-out: MIC E. coli Biofilm); 2.8 µM (≈ 1.07 µg/mL) with MRSA (Staphylococcus aureus, MRSA, Furan analogues table, read-out: MIC MRSA); 1.1 µM (≈ 0.422 µg/mL) with H. pylori (Helicobacter pylori, Furan analogues table, read-out: MIC H. pylori); 8.5 µM (≈ 3.26 µg/mL) with C. jejuni (Campylobacter jejuni, Furan analogues table, read-out: MIC C. jejuni); 90.8 µM (≈ 34.8 µg/mL) in the assay on E. coli (Escherichia coli, planktonic, Furan analogues table, read-out: MIC E. coli Plank). Further, the “MIC S. epidermidis Biofilm” value against S. epidermidis biofilm (Furan analogues table) turned out to be 5.7 µM (≈ 2.18 µg/mL). The “Disk Diff (%) C. difficile” value in the assay with C. difficile (Nitazoxanide = 100, Furan analogues table) worked out at 70.5 ± 0.5%.
As to `O=C(Nc1ncc([N+](=O)[O-])s1)c1cccnc1F` [VPC16a1052, 2-Fluoro-N-(5-nitrothiazol-2-yl)nicotinamide], the “PFOR inhibition relative to nitazoxanide (=100)” value in [1] was determined as 91%. Also, the MIC with H. pylori (setting [3]) is 3.7 µM (≈ 0.992 µg/mL); with C. jejuni (setting [4]), 7.5 µM (≈ 2.01 µg/mL); in the assay with E. coli (Escherichia coli, 24 h, read-out: MIC (μM) E. coli Plank) it was 119 µM (≈ 32 µg/mL). Also, the “Disk Diffusion (%) C. difficile” value in the assay on C. difficile worked out at 100%.
`CCCCCCCC(=O)Nc1ncc([N+](=O)[O-])s1` [VPC16b1046]: the MIC with S. epidermidis (broth dilution, Trypticase Soy, 24 h, read-out: MIC (μM) S. epidermidis Plank) is recorded as 11.1 µM (≈ 3.01 µg/mL); in the assay on E. coli biofilm (read-out: MIC (μM) E. coli Biofilm), 88.4 µM (≈ 24 µg/mL); with MRSA (broth dilution, Trypticase Soy, 24 h, read-out: MIC (μM) MRSA), 59.0 µM (≈ 16 µg/mL); in the assay on H. pylori (broth dilution, Brain Heart Infusion, 24 h, read-out: MIC (μM) H. pylori) it was 0.8 µM (≈ 0.217 µg/mL); with C. jejuni (broth dilution, Brain Heart Infusion, 24 h, read-out: MIC (μM) C. jejuni), 106.9 µM (≈ 29 µg/mL); with E. coli (broth dilution, LB medium, 24 h, read-out: MIC (μM) E. coli Plank), 117.9 µM (≈ 32 µg/mL). The “MIC (μM) S. epidermidis Biofilm” value against S. epidermidis biofilm turned out to be 7.4 µM (≈ 2.01 µg/mL). In addition, the “Disk Diffusion (%) C. difficile” value with C. difficile came out at 54 ± 4%.
